Consider seven compounds from patent publication US11926619B2, “Certain pladienolide compounds and methods of use” (EISAI R&D MANAGEMENT CO., LTD., priority 2018, dated 2024).

Series [1] deals with WiDr-R cells (colon cancer cells; chemically-induced SF3B1 R1074H mutant). Particulars: R1074H mutation; cited from earlier work.
For series [2] the following is noted: in vivo; cited from earlier work.
For series [3] the following is noted: from C=CC[C@@](C)(CCCCC(=O)O[C@H](/C(C)=C/I)[C@@H](C)C=C)O[Si](CC)(CC)CC; rcm bond; Hoveyda-Grubbs catalyst; toluene; 4.0 mM; 50.0 °C; 2.0 h.
For series [4], the system named is WiDr cells (colon cancer cells; wildtype SF3B1). The series is described as follows: Cell viability assay (CellTiter-Glo, 72 hr), WiDr cells. Type of series: cell-based. To be noted: Homo sapiens; WiDr cells (wildtype SF3B1); read-out: WiDr GI50. The method, boiled down:
(§1)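 Cells at 2000/well were exposed to 9 compound concentrations (0.1% DMSO) in duplicate or triplicate for 72 hr at 37 °C. ATP was read by CellTiter-Glo against a time-zero plate and DMSO control growth. Percent growth/viability was plotted against concentration to give Emax; negative values indicate lethality.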
Background: In ATP-based viability assays light output follows the ATP content of the culture.

Series [5] deals with WiDr-R cells (colon cancer cells; chemically-induced SF3B1 R1074H mutant). The series is described as follows: Cell viability assay (CellTiter-Glo, 72 hr), resistant WiDr-R cells (counter-screen). Type of series: cell-based. Particulars: WiDr-R cells (SF3B1 R1074H mutation, resistant); read-out: WiDr-R GI50. In outline:
as §1

In series [6] the test system is Panc 05.04 cells (pancreatic cancer cells; Q699H and K700E mutations in SF3B1). The series is described as follows: Cell viability assay (CellTiter-Glo, 72 hr), Panc 05.04 cells. Type of series: cell-based. Particulars: Panc 05.04 cells (mutant SF3B1); for Emax: maximum achievable response in tested dose range, negative value = cellular lethality, read-out: Panc 05.04 (mt SF3B1 cells) Emax (%); for GI50: read-out: Panc 05.04 (mt SF3B1 cells), GI50. In outline: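 Viability was read as ATP content (CellTiter-Glo) after 72 hr compound exposure of Panc 05.04 cells at 37 °C, nine concentrations, 0.1% DMSO. Percentage growth was referenced to time-zero and vehicle wells and plotted against concentration to obtain Emax; negative Emax denotes cell killing.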

In a further series the target is T1, SF3b complexes (Homo sapiens, UniProt O75533+Q7RTV0).
T1 construct: endogenous in cells
The series is described as follows: Scintillation proximity assay (SPA) with [3H]-labelled pladienolide probe. To be noted: wt SF3B1, read-out: SPA (wt SF3B1 cells) IC50. Type of series: binding. In outline:
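SF3b complexes immunoprecipitated from nuclear extracts with anti-SF3B1 antibody on anti-mouse PVT SPA beads. Beads pre-incubated 30 min with varying PB or PB-OH, then 2.5 nM [3H]-PB added for 30 min; scintillation signal read and fit by non-linear regression.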
(In general: Scintillation proximity formats need no separation of bound from free tracer.)

Turning to `CCC(O)C(C)C1OC1CC(C)(O)/C=C/C=C(\C)C1OC(=O)CC(O)CCC(C)(O)C(OC(=O)N2CCN(C3CCCCCC3)CC2)/C=C/C1C` (centres unmarked) [Compound E7107, (8E,12E,14E)-7-((4-Cycoheptylpiperazin-1-yl)carbonyl)oxy-3,6,16,21-tetrahydroxy-6,10,12,16,20-pentamethyl-18,19-epoxytricosa-8,12,14-trien-11-olide], the “resistance of WiDr-R cells in terms of growth inhibition” value in series [1] was “resistant”.
Turning to tremelimumab, the plasma half-life entry in series [2] is “approximately 22 days”.
In series [3], `CC[Si](CC)(CC)O[C@@]1(C)CC=C[C@H](C)[C@@H](/C(C)=C/I)OC(=O)CCCC1` yielded a ring closure, yield of all isomers of 53%.
Broadly, the GI50 is the concentration giving 50% growth inhibition. In general, IC50 refers to the concentration that inhibits the measured activity by half. For the compound `C/C(=C\C=C\[C@@H](C)COC(=O)N1CCC[C@H]1C(=O)O)[C@H]1OC(=O)C[C@H](O)CC[C@@](C)(O)[C@@H](OC(=O)N2CCN(C3CCCCCC3)CC2)/C=C/[C@@H]1C`, the GI50 was > 1000 nM in series [4], > 1000 nM in series [5] and 2640 nM in series [6]. Besides, the Emax in series [6] was determined as 35%. Also, on SF3b complexes, the concentration for half-maximal inhibition (IC50) was 36.1 nM.
On to `C/C(=C\C=C\[C@@H](C)c1ccccn1)[C@H]1OC(=O)C[C@H](O)CC[C@@](C)(O)[C@@H](OC(=O)N2CCN(C3CCCC3)CC2)/C=C/[C@@H]1C`, for which the GI50 in series [4] was 19.6 nM; in series [5] it was > 1000 nM; in series [6] it was 27.9 nM. Further, the Emax in series [6] is -89.5%. Also, the IC50 on SF3b complexes was 8.76 nM.
With `C/C(=C\C=C\[C@@H](C)c1ccccn1)[C@H]1OC(=O)C[C@H](O)CC[C@@](C)(O)[C@@H](OC(=O)N2CCN(C(C)(C)C)CC2)/C=C/[C@@H]1C`, the results for the GI50 in series [4], in series [5] and in series [6] were 76 nM, > 1000 nM and 66 nM, respectively. Further, the Emax in series [6] is -78.1%. Also, at SF3b complexes, the IC50 amounted to 13.1 nM.
With `C/C(=C\C=C\[C@@H](C)COC(=O)N1CC[C@@H](O)C1)[C@H]1OC(=O)CCCCC[C@@H](OC(=O)N2CCN(C3CCCCCC3)CC2)/C=C/[C@@H]1C`, the GI50 in series [4] is 45.5 nM; in series [5] it was > 1000 nM; in series [6], 35.2 nM. The Emax in series [6] is -81.6%. Further, the IC50 on SF3b complexes was 40.2 nM.
